According to patent publication US20090023163A1, “Method of Measuring Enzyme Activity and Method of Evaluating Compound” (priority 2005, published 2009):

Legend:
Type in all cases: biochemical
[1] = molecular target: T1, hLCE (human long chain fatty acyl elongase) (Homo sapiens, UniProt Q9H5J4); experiment: Measuring LCE activity using N-Tag-hACBP (SPA); details: yeast microsomal sample of hLCE, 40 μM long chain fatty acid CoA, 60 μM malonyl-CoA, 37° C. 2 hours, FIG. 1
T1 construct: made in house; host or cells: Pichia pastoris (yeast), microsomal sample
T1 sequence (Q9H5J4 1-265): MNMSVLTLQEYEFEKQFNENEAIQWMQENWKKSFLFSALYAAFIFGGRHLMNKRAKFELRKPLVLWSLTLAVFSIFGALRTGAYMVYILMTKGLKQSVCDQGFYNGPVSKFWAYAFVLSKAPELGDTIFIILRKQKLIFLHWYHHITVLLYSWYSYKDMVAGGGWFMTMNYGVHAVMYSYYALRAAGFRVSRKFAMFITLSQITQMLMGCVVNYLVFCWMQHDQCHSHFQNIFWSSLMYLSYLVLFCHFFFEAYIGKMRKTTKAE
Procedure: An assay buffer solution (100 mM sodium chloride, 100 mM Tris buffer solution, pH 6.5) containing the above-mentioned yeast microsomal sample, 1 μM rotenone (manufactured by Sigma), 1 mM NADPH (reduced nicotinamide adenine dinucleotide phosphate, manufactured by Sigma), 20 μM fatty acid-free bovine serum albumin (manufactured by Sigma), 40 μM long chain fatty acid CoA (manufactured by Sigma), and 50,000 dpm of 60 μM malonyl-CoA (manufactured by Sigma, Muromachi Yakuhin Kagaku) was incubated at 37° C. for 2 hours in a 96-well Opti-plate (Packard), and then, 0.25% octyl-beta-glucoside was added thereto to stop the reaction.
(§1) Subsequently, 2 μg of a human acyl-CoA-binding protein tagged with a His tag at the N terminus and 500 μg of SPA resin (PVT copper His-Tag SPA Beads, manufactured by Amersham) were added thereto, and the resulting mixture was incubated at 37° C. for 30 minutes.
The solution after incubation was centrifuged at 3,000 rpm, and an activity was measured using a Top Count (Packard). Here, in order to evaluate a specific activity, an expression vector in which hLCE was not cloned was transfected into a host yeast, Pichia pastris by the electroporation method, whereby a transformed yeast was obtained. […]

[2] = molecular target: T2, hElovl-1 (human elongase of very long chain fatty acids-like 1) (Homo sapiens, UniProt Q9BW60); experiment: Measuring activity of hElovl-1 using N-Tag-hACBP (SPA); details: HEK293 microsomal sample of hElovl-1, 40 μM long chain fatty acid CoA, 60 μM malonyl-CoA, 37° C. 2 hours, FIG. 3
T2 construct: implied by vector pCMV-Tag2B, own knowledge) (N); made in house; host or cells: HEK293, microsomal sample
T2 sequence (Q9BW60 1-279): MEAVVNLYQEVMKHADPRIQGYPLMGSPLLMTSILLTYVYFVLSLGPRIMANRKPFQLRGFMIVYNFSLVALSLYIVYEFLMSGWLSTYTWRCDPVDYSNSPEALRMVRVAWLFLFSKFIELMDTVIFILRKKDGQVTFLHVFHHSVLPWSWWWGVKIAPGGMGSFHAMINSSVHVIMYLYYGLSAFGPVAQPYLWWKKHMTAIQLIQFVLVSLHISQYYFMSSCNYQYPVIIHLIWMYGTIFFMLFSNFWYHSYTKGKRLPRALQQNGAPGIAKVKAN
Procedure: (§2) An assay buffer solution (100 mM sodium chloride, 100 mM Tris buffer solution, pH 6.5) containing the cell microsomal sample of hElovl-3 or hElovl-1 obtained by the above-mentioned preparation method, 1 μM rotenone (manufactured by Sigma), 1 mM NADPH (reduced nicotinamide adenine dinucleotide phosphate, manufactured by Sigma), 20 μM fatty acid-free bovine serum albumin (manufactured by Sigma), 40 μM long chain fatty acid CoA (manufactured by Sigma, manufactured by Avanti), and 50,000 dpm of 60 μM malonyl-CoA (manufactured by Sigma, Muromachi Yakuhin Kagaku) was incubated at 37° C. for 2 hours in a 96-well Opti-plate (Packard), and then, 0.25% octyl-beta-glucoside was added thereto to stop the reaction.
as §1, with “to the reaction solution,” for “thereto,”, “minutes, followed by centrifugation at 3,000 rpm, and an activity was measured using a Top Count (Packard).” for “minutes.”
(§3) In order to evaluate a specific activity, an expression vector in which either enzyme was not cloned was transfected into a host cell, HEK293 by the host cationic lipid method, and comparison was carried out with the microsomal sample obtained by a standard method from the expressing cell.

[3] = molecular target: T3, hElovl-3 (human elongase of very long chain fatty acids-like 3) (Homo sapiens, UniProt Q9HB03); experiment: Measuring activity of hElovl-3 using N-Tag-hACBP (SPA); details: HEK293 microsomal sample of hElovl-3, 40 μM long chain fatty acid CoA, 60 μM malonyl-CoA, 37° C. 2 hours, FIG. 2
T3 construct: made in house; host or cells: HEK293, microsomal sample
T3 sequence (Q9HB03 1-270): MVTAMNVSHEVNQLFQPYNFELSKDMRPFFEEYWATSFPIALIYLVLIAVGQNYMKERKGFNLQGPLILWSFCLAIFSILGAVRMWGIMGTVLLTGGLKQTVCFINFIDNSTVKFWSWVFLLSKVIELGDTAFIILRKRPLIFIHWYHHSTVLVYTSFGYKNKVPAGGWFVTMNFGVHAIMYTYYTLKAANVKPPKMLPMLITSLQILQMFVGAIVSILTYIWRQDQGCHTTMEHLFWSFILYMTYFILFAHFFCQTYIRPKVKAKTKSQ
Procedure: as §2
as §1, with “to the reaction solution,” for “thereto,”, “minutes, followed by centrifugation at 3,000 rpm, and an activity was measured using a Top Count (Packard).” for “minutes.”
as §3

SMILES | enhancement of a signal (enzyme activity with the acyl-CoA used as the substrate) [1] | enhancement of a signal (enzyme activity with the acyl-CoA used as the substrate) [2] | enhancement of a signal (enzyme activity with the acyl-CoA used as the substrate) [3]
CCCCCCCCCCCCCCCC(=O)SCCNC(=O)CCNC(=O)[C@H](O)C(C)(C)COP(=O)(O)OP(=O)(O)OC[C@H]1O[C@@H](n2cnc3c(N)ncnc32)[C@H](O)[C@@H]1OP(=O)(O)O [palmitoyl-CoA] | specific enhancement of a signal was observed | – | –
CCCCCCCCCCCCCCCCCCCCCCCC(=O)SCCNC(=O)CCNC(=O)[C@H](O)C(C)(C)COP(=O)(O)OP(=O)(O)OC[C@H]1O[C@@H](n2cnc3c(N)ncnc32)[C@H](O)[C@@H]1OP(=O)(O)O [lignoceroyl-CoA] | – | enhancement of a signal was not observed | enhancement of a signal was not observed
CCCCCCCCCCCCCCCCCC(=O)SCCNC(=O)CCNC(=O)[C@H](O)C(C)(C)COP(=O)(O)OP(=O)(O)OC[C@H]1O[C@@H](n2cnc3c(N)ncnc32)[C@H](O)[C@@H]1OP(=O)(O)O [stearoyl-CoA] | enhancement of a signal was not observed | – | specific enhancement of a signal was observed
CCCCCCCCCCCCCCCCCCCC(=O)SCCNC(=O)CCNC(=O)[C@H](O)C(C)(C)COP(=O)(O)OP(=O)(O)OC[C@H]1O[C@@H](n2cnc3c(N)ncnc32)[C@H](O)[C@@H]1OP(=O)(O)O [arachidoyl-CoA] | – | specific enhancement of a signal was observed | –
